Our source for the inhibition, Activity and IC50 values is ChEMBL document CHEMBL6177930, “2-(4-Bromobenzyl) tethered 4-amino aryl/alkyl-5,6,7,8-tetrahydrobenzo[4,5]thieno[2,3-d]pyrimidines: design, synthesis, anticancer assessment via dual topoisomerase-I/II inhibition, and in silico studies” (RSC Med Chem, 2025).

The test system of one experiment is A549. The experiment is described as follows: Antiproliferative activity against human A549 cells assessed as inhibition of cell growth at 10 uM measured after 48 to 72 hrs by MTT assay relative to control. Format: functional. Conditions: time 48-72 hrs. A general note: Tetrazolium dyes change colour on reduction, which living cells bring about.
Experiment [1] in a line: Antiproliferative activity against human HCC cells assessed as inhibition of cell growth at 10 uM measured after 48 to 72 hrs by MTT assay relative to control. The class given is functional. Conditions: time 48-72 hrs.
In experiment [2] the test system is MCF7. The experiment in a line: Antiproliferative activity against human MCF7 cells assessed as inhibition of cell growth at 10 uM measured after 48 to 72 hrs by MTT assay relative to control. The settings on record: time 48-72 hrs. The class given is functional.
The subject of experiment [3] is FaDu. The experiment is described as follows: Induction of autophagy in human FaDu cells assessed as reduction in cell density at 1 to 5 uM measured after 48 hrs by acridine orange staining based fluorescence microscopy analysis. The class given is functional. Conditions: dose 1-5 µM.
Experiment [4] has as its target T1, Prostaglandin G/H synthase 2 (Homo sapiens) (UniProt P35354).
T1 sequence (whole entry): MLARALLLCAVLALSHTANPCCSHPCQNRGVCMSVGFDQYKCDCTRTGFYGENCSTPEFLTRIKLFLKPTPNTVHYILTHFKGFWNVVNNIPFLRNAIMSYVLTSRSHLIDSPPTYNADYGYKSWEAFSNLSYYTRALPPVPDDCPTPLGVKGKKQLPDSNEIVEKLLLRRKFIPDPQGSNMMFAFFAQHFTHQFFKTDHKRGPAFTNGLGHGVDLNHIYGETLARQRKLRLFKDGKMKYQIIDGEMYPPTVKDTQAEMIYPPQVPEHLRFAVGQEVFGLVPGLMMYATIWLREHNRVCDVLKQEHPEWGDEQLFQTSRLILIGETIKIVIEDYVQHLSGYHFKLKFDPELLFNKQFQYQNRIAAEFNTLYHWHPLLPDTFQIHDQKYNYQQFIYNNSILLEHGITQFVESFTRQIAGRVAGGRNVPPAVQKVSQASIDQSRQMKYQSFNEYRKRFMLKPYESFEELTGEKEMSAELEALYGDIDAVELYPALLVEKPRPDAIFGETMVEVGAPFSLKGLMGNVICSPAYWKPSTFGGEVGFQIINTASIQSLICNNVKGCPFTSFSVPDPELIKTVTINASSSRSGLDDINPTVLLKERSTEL
The experiment is described as follows: Inhibition of human recombinant COX-2 at 10 uM relative to control.

Experiment [5] concerns FaDu. The experiment is described as follows: Induction of apoptosis in human FaDu cells assessed as appearance of deformed cell membrane at 1 to 5 uM by DAPI staining based analysis. The class given is functional. The settings on record: dose 1-5 µM.
Experiment [6] deals with FaDu. The experiment in a line: Inhibition of colony formation in human FaDu cells assessed as reduction in colony formation incubated for 48 hrs crystal violet staining based analysis. Format: functional, cell-based. Conditions: dose 1-5 µM.
The next experiment has as its system MDA-MB-231. The experiment is described as follows: Antiproliferative activity against human MDA-MB-231 cells assessed as inhibition of cell growth at 10 uM measured after 48 to 72 hrs by MTT assay relative to control. The class given is functional. Conditions: time 48-72 hrs.
The subject of experiment [7] is FaDu. The experiment in a line: Antiproliferative activity against human FaDu cells assessed as inhibition of cell growth measured after 72 hrs by MTT assay. The class given is functional, cell-based.
For experiment [8], the system named is FaDu. The experiment in a line: Induction of morphological changes in human FaDu cells assessed as appearance of rounded cells at 2 to 5 uM incubated for 48 hrs by bright field microscope based analysis. Format: functional, cell-based. Conditions: dose 2-5 µM.
In experiment [9] the test system is MCF7. The experiment in a line: Induction of cell cycle arrest in human MCF7 cells assessed as accumulation of cells at S phase measured after 24 hrs by PI staining based flow cytometry analysis (reference value: 24.7%). The class given is functional. In general terms: A flow cytometer gives signals particle by particle.
Another experiment concerns Mitochondrial membrane. The experiment in a line: Induction of mitochondrial membrane potential loss in human FaDu cells assessed as decrease in green fluorescence incubated for 48 hrs by Rhodamine 123 staining based fluorescence microscopy analysis. Format: cell membranes. The settings on record: dose 1-5 µM.
The test system of experiment [10] is FaDu. The experiment is described as follows: Induction of morphological changes in human FaDu cells assessed as reduction in cell density at 1 uM incubated for 48 hrs by bright field microscope based analysis. The class given is functional.
In experiment [11] the test system is MCF7. The experiment is described as follows: Inhibition of oxidative stress in human MCF7 cells assessed as reduction in ROS production incubated for 24 hrs by DCFH-DA staining based flow cytometry analysis. The class given is functional, cell-based.
For experiment [12], the system named is FaDu. The experiment is described as follows: Inhibition of cell migration in human FaDu cells assessed as reduction in wound closure at 1 to 2 uM measured after 48 hrs by bright field microscopic analysis. The class given is functional, cell-based. The settings on record: dose 1-2 µM.
In experiment [13] the test system is FaDu. The experiment in a line: Inhibition of cell migration in human FaDu cells assessed as reduction in wound closure at 1 uM measured after 48 hrs by bright field microscopic analysis relative to control. The class given is functional.
Experiment [14] relates to FaDu. The experiment in a line: Inhibition of cell migration in human FaDu cells assessed as reduction in wound closure at 5 uM measured after 48 hrs by bright field microscopic analysis relative to control. Format: functional.

The inhibition is the drop in the measured response relative to a control, in per cent. Usually pIC50 stands for the negative decadic logarithm of the IC50, by convention in mol/L.

Each structure is given as a SMILES string. pIC50: −log10 of the molar value. Calls of active or inactive are those of the source. The rule behind the calls is not given here.

With `Brc1ccc(Cc2nc(N3CCN(c4ccncc4)CC3)c3c4c(sc3n2)CCCC4)cc1`, the inhibition at 10 µM in the experiment with A549 stood at 39.2%; in experiment [1], 2.28%; in the experiment on MCF7 [2], 15.1%; with MDA-MB-231, 6.27%. For the same molecule, the result in the experiment with FaDu [3], with FaDu [5], with FaDu [8] and with FaDu [10] was Active. The inhibition in experiment [4] was 75.7%; in the experiment on FaDu [6], “Dose-dependent-effect”. Besides, the pIC50 with FaDu [7] was 5.76. The Activity entry is “Dose-dependent-effect” in the experiment with FaDu [7] (dose 0.5-50 µM), 17.8% in the experiment on MCF7 [9] and “Dose-dependent-effect” in the experiment on Mitochondrial membrane. For the same molecule, the inhibition result in the experiment on MCF7 [11] and in the experiment with FaDu [12] was “Active” in each case. Besides, the inhibition at 1 µM with FaDu [13] amounted to 64.7%. In addition, the inhibition at 5 µM in the experiment with FaDu [14] worked out at 24.4%.
